The record followed here is paper PMC4234439 (Journal of Medicinal Chemistry, 2014).

The nature of data set [1]: plasma protein binding by ultracentrifugation. The class given is in vitro ADME. Particulars: 37 °C.
A short description of data set [2]: plasma exposure in Swiss mice. Particulars: oral 10 mg/kg, PEG400 suspension, comparison in words. The class given is in vivo, Swiss outbred mice.
Data set [3] in a line: human liver microsomal stability. The class given is in vitro ADME. Particulars: liver microsomes, intrinsic clearance (CLint).
Data set [4] concerns P. falciparum strain TM90-C2B (chloroquine, mefloquine, pyrimethamine, and atovaquone resistant). Put plainly: microbe, parasite or virus in culture. The note with it: Plasmodium falciparum, TM90, read-out: EC50 (nM) TM90-C2B.
The subject of data set [5] is P. berghei-GFP parasites. It is filed as in vivo, Plasmodium berghei. The note with it: for animals cured: Thompson test, 10 mg/kg, five mice per group.

For `COc1cc2[nH]c(C)c(-c3ccc(Oc4ccc(OC(F)(F)F)cc4)cc3F)c(=O)c2cc1Cl` [Compound 7], the “binding to plasma proteins” value in data set [1] is more than 99%. Also, the plasma exposure result in data set [2] is “highest exposure”.
In data set [3], `COc1cc2[nH]c(C)c(-c3cccnc3)c(=O)c2cc1Cl` [Compound 20, 6-Chloro-7-methoxy-2-methyl-3-(pyridin-3-yl)quinolin-4(1H)-one] had a microsomal CLint at 1 μM of less than 15 µL/min/mg.
Molecule `COc1cc2[nH]c(C)c(-c3ccncc3)c(=O)c2cc1Cl` [Compound 21, 6-Chloro-7-methoxy-2-methyl-3-(pyridin-4-yl)quinolin-4(1H)-one] gave a microsomal CLint at 1 μM in data set [3] of less than 15 µL/min/mg.
Consider `COc1cc2[nH]c(C)c(-c3ccc(N4CCN(C)CC4)nc3)c(=O)c2cc1Cl` [Compound 24, 6-Chloro-7-methoxy-2-methyl-3-(6-(4-methylpiperazin-1-yl)pyridin-3-yl)quinolin-4(1H)-one], for which, in data set [4], the EC50 is not below 536 nM.
In the case of `COc1cc2[nH]c(C)c(-c3cc4ccccc4s3)c(=O)c2cc1Cl` [Compound 30, 3-(Benzo[b]thiophen-2-yl)-6-chloro-7-methoxy-2-methylquinolin-4(1H)-one], in data set [4], the EC50 was in the range of 24.8 to 138 nM.
`COc1cc2[nH]c(C)c(-c3ccc(Oc4ccccc4)cc3)c(=O)c2cc1Cl` [Compound 46, 6-Chloro-7-methoxy-2-methyl-3-(4-phenoxyphenyl)quinolin-4(1H)-one] returned a microsomal CLint at 1 μM in data set [3] of 19 µL/min/mg.
On to `COc1cc2[nH]c(C)c(-c3ccc(C(F)(F)F)cc3)c(=O)c2cc1Cl` [Compound 52, 6-Chloro-7-methoxy-2-methyl-3-(4-(trifluoromethyl)phenyl)quinolin-4(1H)-one], for which the plasma exposure entry in data set [2] was “substantially lower”.
On to `COc1cc2[nH]c(C)c(-c3ccc(Oc4ccc(OC(F)(F)F)cc4)cc3C)c(=O)c2cc1Cl` [Compound 62, 6-Chloro-7-methoxy-2-methyl-3-(2-methyl-4-(4-(trifluoromethoxy)phenoxy)phenyl)-quinolin-4(1H)-one], for which the animals cured entry in data set [5] is “two out of five”.
In the case of `COc1cc2[nH]c(C)c(-c3ccc(-c4ccc(C(F)(F)F)cc4F)nc3)c(=O)c2cc1Cl` [Compound 66, 6-Chloro-3-(6-(2-fluoro-4-(trifluoromethyl)phenyl)pyridin-3-yl)-7-methoxy-2-methylquinolin-4(1H)-one], the plasma exposure result in data set [2] is on record as “slightly lower exposure”.
For `COc1cc2[nH]c(C)c(-c3ccc(-c4ccc(OC(F)(F)F)cc4)nc3)c(=O)c2cc1Cl` [Compound 67, 6-Chloro-7-methoxy-2-methyl-3-(6-(4-(trifluoromethoxy)phenyl)pyridin-3-yl)quinolin-4(1H)-one], the plasma exposure result in data set [2] was “slightly lower exposure”. Also, the animals cured entry in data set [5] is reported as “cured all the mice”.
Regarding `O=C1C(O)=C([C@H]2CC[C@H](c3ccc(Cl)cc3)CC2)C(=O)c2ccccc21` [atovaquone, reference compound], the “survival” value in data set [5] (days survived beyond untreated control, 50 mg/kg p.o. days 3–5 PE) was 23 days.

As usually defined, the microsomal CLint is the rate of metabolic loss divided by the concentration. For orientation: EC50 means the midpoint of the concentration-response curve.
